Test results taken from paper PMC7762955, “Antibiotic binding releases autoinhibition of the TipA multidrug-resistance transcriptional regulator” (The Journal of Biological Chemistry, 2020).

What was measured:
[1] = target: I112A/F123A mutant of TipAL (Streptomyces lividans, UniProt P0A4T9, F123A/I112A); assay: Isothermal titration calorimetry, thiopeptide binding to I112A/F123A TipAL
Protocol: (§1) The ITC binding studies of the nosiheptide (Sigma) with WT TipAL and its mutants were performed using an ITC200 (GE Healthcare) at 298 K using a previously described protocol ([38]), with 60 μl of nosiheptide solution in the injector cell and 260 μl of protein solution in the sample cell. The injection volumes were set to […] for all experiments, and two consecutive injections were separated by 2 min to reset the baseline. The control experiments, in which nosiheptide was titrated against the buffer, were also conducted, and the results were subtracted from the results of each standard experiment for adjustments. Three replicates were performed for each reaction. The final data were processed with a one-site fitting model using Microcal-Origin (OriginLab Corp, Northampton, MA, USA).

[2] = target: T1, F123A/F126A mutant of TipAL (Streptomyces lividans, UniProt P0A4T9, F123A/F126A); assay: Isothermal titration calorimetry, thiopeptide binding to F123A/F126A TipAL
Protocol: as §1

[3] = target: WT TipAL (Streptomyces lividans, UniProt P0A4T9); assay: Isothermal titration calorimetry, thiopeptide binding to WT TipAL
Protocol: as §1

[4] = target: T2, F123A mutant of TipAL (Streptomyces lividans, UniProt P0A4T9, F123A); assay: Isothermal titration calorimetry, thiopeptide binding to F123A TipAL
Protocol: as §1

[5] = system: TipAL; assay: FPA, thiostrepton-induced activation of TipAL-ptipA binding; format: biochemical, Streptomyces lividans; settings: WT TipAL with vs without thiostrepton (1:1, 15 min)
Protocol: (§2) FPAs were performed in buffer consisting of 20 mM Tris-HCl, pH 7.5, 200 mM NaCl and 5% (v/v) glycerol at 298 K using a SpectraMax M5 microplate reader system (Molecular Devices, San Jose, CA, USA). The wavelengths of fluorescence excitation and emission were 486 and 525 nm, respectively. 26-bp dsDNA from the −10 and −35 regions of the tipA, mta, and skgA promoters with the sequences […], […], and […] were synthesized with a 5′-carboxyfluorescein label for the respective assays with TipAL, Mta, and SkgA proteins. For assays with thiostrepton supplementation, proteins were incubated with thiostrepton (Sigma) at a 1:1 ratio for 15 min prior to mixing with DNA in wells. Each well of a 384-well plate contained 10 nM of a fluorescently labeled DNA probe and different amounts of proteins with a final volume of 80 μl. DNA-free controls were included, and three replicates were performed for each reaction for each assay. The fluorescence polarization ΔP (in mP units) was calculated and fitted according to a one-site specific binding model using GraphPad Prism7 (GraphPad Software) with the function ΔP = ΔPmax[protein]/(Kd + [protein]).

[6] = target: T2, F123A mutant of TipAL; assay: FPA, thiostrepton-induced activation of F123A TipAL-ptipA binding; format: biochemical; settings: thiostrepton 1:1, 15 min
Protocol: as §2

[7] = target: T1, F123A/F126A mutant of TipAL; assay: FPA, thiostrepton-induced activation of F123A/F126A TipAL-ptipA binding; format: biochemical; settings: thiostrepton 1:1, 15 min
Protocol: as §2

[8] = target: tipA promoter DNA (ptipA); assay: Fluorescence polarization assay, tipA promoter DNA binding; set-up: species or system Streptomyces lividans; settings: apo, no antibiotic; FPA, 10 nM 5'-carboxyfluorescein-labeled 26-bp dsDNA, 20 mM Tris-HCl pH 7.5, 200 mM NaCl, 5% glycerol, 298 K; ex 486/em 525 nm; one-site binding fit; three replicates; n.b. = printed in picture, not defined; read-out: Kd, affinity with the tipA promoter DNA (ptipA)
Protocol: Fluorescence polarization assays (FPAs) were performed to test the structure-based hypothesis that α6–α7 plays a key role in communication between the ligand-binding and DNA-binding regions. […] Parallel experiments were also performed for Mta and SkgA proteins, and consistent results were obtained.
as §2

[9] = set-up: method as in PMID 11669632, PMID 14985361; settings: ref [19], [26]; cited from earlier work
[10] = target: T3, TipAL F123A (Streptomyces lividans, UniProt P0A4T9 1-253, F123A); assay: fluorescence polarization; thiostrepton 1:1; 20 mM Tris-HCl pH 7.5, 200 mM NaCl, 5% (v/v) glycerol, 298 K; 10 nM labeled DNA; settings: protein: recombinant; tags: His6 (pET-28a); chain copies: 2; label: 5'-carboxyfluorescein; blunt
T3 sequence: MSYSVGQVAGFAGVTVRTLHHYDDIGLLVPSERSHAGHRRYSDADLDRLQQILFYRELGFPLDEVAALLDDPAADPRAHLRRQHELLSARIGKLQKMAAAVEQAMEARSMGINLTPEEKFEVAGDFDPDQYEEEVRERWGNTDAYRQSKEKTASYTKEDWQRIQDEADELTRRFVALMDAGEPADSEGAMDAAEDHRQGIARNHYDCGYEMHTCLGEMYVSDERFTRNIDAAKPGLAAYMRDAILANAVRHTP

[11] = target: T4, TipAL I112A/F123A (Streptomyces lividans, UniProt P0A4T9 1-253, I112A;F123A); assay: as above; settings: protein: recombinant; tags: His6 (pET-28a); chain copies: 2; label: 5'-carboxyfluorescein; blunt
T4 sequence: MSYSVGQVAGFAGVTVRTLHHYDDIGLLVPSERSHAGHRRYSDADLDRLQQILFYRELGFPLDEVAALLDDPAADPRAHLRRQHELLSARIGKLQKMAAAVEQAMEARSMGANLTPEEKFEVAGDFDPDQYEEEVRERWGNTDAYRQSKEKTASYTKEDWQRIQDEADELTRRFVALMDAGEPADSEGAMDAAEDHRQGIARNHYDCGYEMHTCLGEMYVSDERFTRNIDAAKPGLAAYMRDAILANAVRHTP

[12] = target: T5, TipAL F123A/F126A (Streptomyces lividans, UniProt P0A4T9 1-253, F123A;F126A); assay: as above; settings: protein: recombinant; tags: His6 (pET-28a); chain copies: 2; label: 5'-carboxyfluorescein; blunt
T5 sequence: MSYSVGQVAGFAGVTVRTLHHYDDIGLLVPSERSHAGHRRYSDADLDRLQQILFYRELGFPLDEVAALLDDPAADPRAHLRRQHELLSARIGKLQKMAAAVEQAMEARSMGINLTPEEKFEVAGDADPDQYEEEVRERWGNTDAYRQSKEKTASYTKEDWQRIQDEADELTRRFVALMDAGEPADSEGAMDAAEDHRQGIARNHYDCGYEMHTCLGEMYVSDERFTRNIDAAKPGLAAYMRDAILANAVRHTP

[13] = target: T6, TipAL (Streptomyces lividans, UniProt P0A4T9 1-253); assay: as above; settings: protein: recombinant; tags: His6 (pET-28a); chain copies: 2; label: 5'-carboxyfluorescein; blunt
T6 sequence: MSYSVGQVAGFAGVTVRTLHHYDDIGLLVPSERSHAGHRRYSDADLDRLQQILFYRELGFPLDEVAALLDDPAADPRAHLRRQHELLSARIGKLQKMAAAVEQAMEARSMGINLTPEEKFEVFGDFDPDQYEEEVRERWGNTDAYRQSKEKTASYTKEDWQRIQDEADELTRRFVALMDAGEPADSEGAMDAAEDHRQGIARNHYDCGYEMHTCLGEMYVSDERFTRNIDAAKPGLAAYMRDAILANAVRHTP

[14] = target: T7, TipAH7 (Streptomyces lividans, UniProt P0A4T9 1-140); assay: fluorescence polarization; no thiostrepton; 20 mM Tris-HCl pH 7.5, 200 mM NaCl, 5% (v/v) glycerol, 298 K; 10 nM labeled DNA; settings: protein: recombinant; tags: His6 (pET-28a); chain copies: 2; label: 5'-carboxyfluorescein; blunt
T7 sequence: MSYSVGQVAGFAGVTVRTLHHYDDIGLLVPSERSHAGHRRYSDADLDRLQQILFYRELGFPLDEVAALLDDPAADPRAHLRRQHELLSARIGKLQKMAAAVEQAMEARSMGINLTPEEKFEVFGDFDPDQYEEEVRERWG

[15] = target: T8, TipAN (Streptomyces lividans, UniProt P0A4T9 1-109); assay: as above; settings: protein: recombinant; tags: His6 (pET-28a); chain copies: 2; label: 5'-carboxyfluorescein; blunt
T8 sequence: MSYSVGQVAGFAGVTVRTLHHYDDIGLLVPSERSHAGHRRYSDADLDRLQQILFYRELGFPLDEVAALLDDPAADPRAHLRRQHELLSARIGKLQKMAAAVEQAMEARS

C=C(NC(=O)c1csc(-c2nc3c(cc2O)-c2nc(cs2)C(=O)NC(C(C)O)C(=O)N/C(=C\C)c2nc(cs2)C(=O)NC2CC(O)C(=O)OCc4cccc5[nH]c(c(C)c45)C(=O)SCC(NC(=O)c4csc2n4)c2nc-3cs2)n1)C(N)=O (stereo not drawn) [thiopeptide, nosiheptide]
Kd [1]: 7510 ± 870 nM | thiopeptide-binding affinity compared with WT and F123A ([1]; I112A/F123A vs WT and F123A TipAL, ITC): without a significant difference | Kd [2]: 13200 ± 1360 nM | decrease in thiopeptide affinity vs WT ([2]; F123A/F126A vs WT TipAL, ITC): ~2.5 fold | Kd [3]: 5230 ± 840 nM | Kd [4]: 7120 ± 950 nM | decrease in thiopeptide affinity vs WT ([4]; F123A vs WT TipAL, ITC): ~1.4 fold

C=C(NC(=O)C(=C)NC(=O)c1csc(C2=N[C@@H]3c4csc(n4)[C@H]4NC(=O)c5csc(n5)[C@H]([C@](C)(O)[C@@H](C)O)NC(=O)[C@H]5CSC(=N5)/C(=C/C)NC(=O)[C@H]([C@@H](C)O)NC(=O)c5csc(n5)[C@]3(CC2)NC(=O)[C@H](C)NC(=O)C(=C)NC(=O)[C@H](C)NC(=O)[C@H]([C@@H](C)CC)N[C@@H]2C=Cc3c([C@H](C)O)cc(nc3[C@H]2O)C(=O)O[C@@H]4C)n1)C(N)=O [thiostrepton]
increase in ptipA affinity of TipAL by thiostrepton binding [5]: ~12.6 fold | rise in ptipA binding in the presence of thiostrepton [6]: did not show such a significant rise | rise in ptipA binding in the presence of thiostrepton [7]: did not show such a significant rise

B1: TipAN: N terminus of TipAL, residues 1–109 (protein)
chain: MSYSVGQVAGFAGVTVRTLHHYDDIGLLVPSERSHAGHRRYSDADLDRLQQILFYRELGFPLDEVAALLDDPAADPRAHLRRQHELLSARIGKLQKMAAAVEQAMEARS
modifications: left off: His6, end not stated, state not stated
Kd [8]: 44 ± 5.1 nM | transcriptional activity in the absence of the TipAS domain [9]: constitutively transcriptionally active

B2: ptipA (dsDNA)
DNA 1: TTGCACCTCACGTCACGTGAGGAGGC
DNA 2: GCCTCCTCACGTGACGTGAGGTGCAA
Kd [10]: 228 ± 25.9 nM | Kd [11]: 685 ± 97.9 nM | Kd [12]: 317 ± 51.4 nM | Kd [13]: 30.2 ± 3.7 nM | Kd [14]: 318 ± 58.5 nM | Kd [15]: 44 ± 5.1 nM
